In ChEMBL document CHEMBL5532665 (J Med Chem, 2024):

Key:
Mu-type opioid receptor = Mu-type opioid receptor (Homo sapiens, UniProt P35372); assay: Agonist activity at human MOR expressed in CHO-K1 cells co-expressing G-alpha15 by calcium mobilization assay; assay type: functional, cell-based; conditions: cho-k1
[1] = molecular target: Kappa-type opioid receptor (Homo sapiens, UniProt P41145); assay: Agonist activity at human KOR expressed in CHO-K1 cells co-expressing G-alpha15 by calcium mobilization assay; assay type: functional, cell-based; conditions: cho-k1
Kappa-type opioid receptor, sequence (P41145 whole entry): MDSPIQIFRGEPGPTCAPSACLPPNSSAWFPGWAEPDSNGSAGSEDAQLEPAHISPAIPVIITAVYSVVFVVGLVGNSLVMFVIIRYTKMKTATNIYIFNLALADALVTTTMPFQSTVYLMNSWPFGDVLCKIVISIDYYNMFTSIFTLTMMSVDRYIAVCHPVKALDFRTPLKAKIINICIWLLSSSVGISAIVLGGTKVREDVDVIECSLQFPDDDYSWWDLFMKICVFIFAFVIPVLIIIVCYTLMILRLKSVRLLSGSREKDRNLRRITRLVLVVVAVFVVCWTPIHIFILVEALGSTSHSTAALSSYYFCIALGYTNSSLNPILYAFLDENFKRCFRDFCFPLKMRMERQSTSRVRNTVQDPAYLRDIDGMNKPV

[2] = molecular target: Delta-type opioid receptor (Homo sapiens, UniProt P41143); assay: Agonist activity at human DOR expressed in CHO-K1 cells co-expressing G-alpha15 by calcium mobilization assay; assay type: functional, cell-based; conditions: cho-k1
Delta-type opioid receptor, sequence (P41143 whole entry): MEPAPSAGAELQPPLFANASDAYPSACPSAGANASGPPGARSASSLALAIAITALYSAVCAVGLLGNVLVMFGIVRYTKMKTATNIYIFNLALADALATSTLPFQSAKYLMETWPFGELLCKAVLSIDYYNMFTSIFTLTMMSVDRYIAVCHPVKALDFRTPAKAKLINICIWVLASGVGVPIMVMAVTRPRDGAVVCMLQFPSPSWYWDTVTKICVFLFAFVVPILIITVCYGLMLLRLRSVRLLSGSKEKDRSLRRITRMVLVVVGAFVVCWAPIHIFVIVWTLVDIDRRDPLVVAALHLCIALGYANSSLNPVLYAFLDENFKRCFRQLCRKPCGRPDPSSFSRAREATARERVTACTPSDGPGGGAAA

[3] = Stability in mouse plasma assessed as half life at 0.01 mol/L measured for 72 hrs by RP-HPLC analysis; assay type: ADME, cell-free
[4] = Selectivity ratio of ED50 for inhibition of gastrointestinal motility in fasted Kunming mouse model treated subcutaneously to ED50 for antinociceptive activity in Kunming mouse model administered subcutaneously measured for 5 to 15 mins by acetic acid-induced writhing test; assay type: toxicity; conditions: in vivo, route sc, read-out: Ratio ED50
[5] = Selectivity ratio of ED50 for inhibition of gastrointestinal motility in fasted Kunming mouse model treated subcutaneously to ED50 for antinociceptive activity in Kunming mouse model administered subcutaneously by tail-flick test; assay type: toxicity; conditions: in vivo, route sc, read-out: Ratio ED50
[6] = Toxicity in Kunming mouse model assessed as effect on locomotor co-ordination at 139 nmol/kg, sc measured for 10 to 40 mins by rotarod test; assay type: organism-based; conditions: in vivo, time 10-40 min

Mu-type opioid receptor, sequence (P35372 whole entry): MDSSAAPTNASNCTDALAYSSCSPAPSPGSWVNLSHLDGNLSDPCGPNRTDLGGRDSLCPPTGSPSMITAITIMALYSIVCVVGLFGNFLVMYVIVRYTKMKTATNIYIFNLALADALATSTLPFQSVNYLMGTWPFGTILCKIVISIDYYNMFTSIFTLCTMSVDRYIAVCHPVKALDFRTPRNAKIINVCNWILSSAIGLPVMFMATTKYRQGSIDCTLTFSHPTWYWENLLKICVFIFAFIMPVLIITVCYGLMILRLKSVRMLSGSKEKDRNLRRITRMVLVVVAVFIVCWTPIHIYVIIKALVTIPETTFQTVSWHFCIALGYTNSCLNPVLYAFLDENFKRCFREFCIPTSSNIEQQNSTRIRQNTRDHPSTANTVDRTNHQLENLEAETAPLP

**Q.** With `CN1C(=O)CNC(=O)[C@H](NC(=O)[C@@H](N)Cc2ccc(O)cc2)CCCCNC(=O)C[C@@H](C(=O)N2CCC[C@@H]2C(N)=O)NC(=O)[C@@H]1Cc1ccccc1` as the compound, how does the EC50 (Mu-type opioid receptor) read?
**A.** 2.5 nM

**Q.** What about the EC50 [1] of the same compound?
**A.** 505 nM

**Q.** And the EC50 [2]?
**A.** 17.5 nM

**Q.** And the half-life at 0.01 mol/L [3]?
**A.** 21.1 h

**Q.** And the selectivity ratio [4]?
**A.** 13

**Q.** What about the selectivity ratio [5] of the same compound?
**A.** 54

**Q.** What about the Activity [6] of the same compound?
**A.** Non-Toxic
